Measured values: patent US9957247B2, “SecA inhibitors and methods of making and using thereof” (Georgia State University Research Foundation, Inc., priority 2012, dated 2018)
pIC50: −log10 of the molar value. Values after ≈ are worked out from the molar mass of the structure shown. Where two headings read alike, the source gives them in different places.

Tests used:
[1] = target: T1, EcSecA (Escherichia coli, UniProt P10408); test: cell-based
Target sequence in this assay (P10408 whole entry): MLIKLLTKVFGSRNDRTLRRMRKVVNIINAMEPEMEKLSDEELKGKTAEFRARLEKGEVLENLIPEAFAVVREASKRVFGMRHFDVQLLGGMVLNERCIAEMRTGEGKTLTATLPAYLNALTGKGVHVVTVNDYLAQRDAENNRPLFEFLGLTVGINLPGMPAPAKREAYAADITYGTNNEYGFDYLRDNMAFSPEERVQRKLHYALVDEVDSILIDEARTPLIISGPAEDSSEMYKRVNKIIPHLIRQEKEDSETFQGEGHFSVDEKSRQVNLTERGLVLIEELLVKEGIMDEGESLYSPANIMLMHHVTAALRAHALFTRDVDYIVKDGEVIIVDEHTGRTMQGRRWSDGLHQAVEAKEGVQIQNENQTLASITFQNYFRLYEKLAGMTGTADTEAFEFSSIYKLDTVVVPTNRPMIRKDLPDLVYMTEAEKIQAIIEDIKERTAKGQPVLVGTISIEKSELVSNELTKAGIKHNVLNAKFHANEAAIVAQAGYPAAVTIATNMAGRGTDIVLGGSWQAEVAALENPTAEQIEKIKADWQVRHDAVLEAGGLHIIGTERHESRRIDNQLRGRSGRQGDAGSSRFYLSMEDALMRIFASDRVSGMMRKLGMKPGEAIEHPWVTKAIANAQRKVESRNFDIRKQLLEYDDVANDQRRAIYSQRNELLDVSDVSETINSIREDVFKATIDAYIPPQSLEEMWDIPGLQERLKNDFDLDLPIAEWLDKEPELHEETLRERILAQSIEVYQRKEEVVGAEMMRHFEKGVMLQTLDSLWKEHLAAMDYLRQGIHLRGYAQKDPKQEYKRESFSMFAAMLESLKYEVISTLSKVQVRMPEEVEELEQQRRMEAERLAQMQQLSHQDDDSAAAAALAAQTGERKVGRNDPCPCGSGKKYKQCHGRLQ

[2] = system: B. subtilis 168; test: Bacteriostatic effect, liquid microdilution, B. subtilis 168; assay type: cell-based; conditions: Bacillus subtilis, Example 2
[3] = target: T2, BsSecA (Bacillus subtilis, UniProt P28366); test: cell-based; set-up: species or system B. subtilis
T2 sequence (P28366 whole entry): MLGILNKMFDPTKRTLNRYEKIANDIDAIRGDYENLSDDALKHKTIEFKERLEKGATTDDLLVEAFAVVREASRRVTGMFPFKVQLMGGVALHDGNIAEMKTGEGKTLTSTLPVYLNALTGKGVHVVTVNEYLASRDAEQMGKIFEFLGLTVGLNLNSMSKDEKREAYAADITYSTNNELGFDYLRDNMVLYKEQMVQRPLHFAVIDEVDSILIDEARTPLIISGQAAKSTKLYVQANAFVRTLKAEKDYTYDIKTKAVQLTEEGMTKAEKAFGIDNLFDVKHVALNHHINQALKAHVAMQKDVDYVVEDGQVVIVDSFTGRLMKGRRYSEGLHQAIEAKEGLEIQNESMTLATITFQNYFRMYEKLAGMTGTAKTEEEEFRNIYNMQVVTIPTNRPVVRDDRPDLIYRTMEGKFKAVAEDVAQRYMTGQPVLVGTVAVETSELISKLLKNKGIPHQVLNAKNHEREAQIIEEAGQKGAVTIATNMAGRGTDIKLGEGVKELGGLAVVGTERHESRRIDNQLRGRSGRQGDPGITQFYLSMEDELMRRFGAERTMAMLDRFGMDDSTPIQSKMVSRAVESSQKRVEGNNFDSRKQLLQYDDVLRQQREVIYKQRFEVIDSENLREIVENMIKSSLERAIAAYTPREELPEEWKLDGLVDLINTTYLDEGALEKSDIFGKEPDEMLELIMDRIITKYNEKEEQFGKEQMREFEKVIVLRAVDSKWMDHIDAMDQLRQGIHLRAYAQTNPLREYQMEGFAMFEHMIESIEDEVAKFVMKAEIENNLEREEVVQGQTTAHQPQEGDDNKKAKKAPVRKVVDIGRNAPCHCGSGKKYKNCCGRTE

[4] = system: S. aureus Mu50; test: Bacteriostatic effect, S. aureus Mu50; conditions: for MIC: Staphylococcus aureus; for Bacteriostatic MIC95, S. aureus Mu50: Table 2
[5] = target: EcSecA N68 (Escherichia coli, UniProt P10408); test: biochemical; assay type: biochemical, E. coli
Sequence of EcSecA N68 (P10408 1-610): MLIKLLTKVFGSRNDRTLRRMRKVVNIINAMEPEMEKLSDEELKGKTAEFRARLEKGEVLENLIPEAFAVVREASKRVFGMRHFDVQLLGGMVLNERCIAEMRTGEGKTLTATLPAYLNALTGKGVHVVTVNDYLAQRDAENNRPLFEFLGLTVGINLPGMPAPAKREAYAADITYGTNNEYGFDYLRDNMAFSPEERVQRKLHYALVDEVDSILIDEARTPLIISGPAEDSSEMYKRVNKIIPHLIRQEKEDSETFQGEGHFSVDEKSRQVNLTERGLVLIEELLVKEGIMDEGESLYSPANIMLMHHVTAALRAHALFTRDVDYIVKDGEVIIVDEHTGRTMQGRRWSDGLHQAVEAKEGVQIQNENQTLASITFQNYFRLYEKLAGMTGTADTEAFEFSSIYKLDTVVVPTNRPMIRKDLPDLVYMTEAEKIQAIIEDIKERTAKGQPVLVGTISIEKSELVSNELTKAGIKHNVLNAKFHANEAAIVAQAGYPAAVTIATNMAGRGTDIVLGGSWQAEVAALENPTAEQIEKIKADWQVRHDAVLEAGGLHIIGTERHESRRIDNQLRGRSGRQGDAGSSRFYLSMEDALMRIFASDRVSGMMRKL

[6] = target: T3, SaSecA2 (Staphylococcus aureus, UniProt Q2FUW6); test: ATPase activity assay (malachite green), SaSecA2; conditions: IC50, Intrinsic ATPase, SaSecA2, Table 1
T3 sequence (Q2FUW6 1-796): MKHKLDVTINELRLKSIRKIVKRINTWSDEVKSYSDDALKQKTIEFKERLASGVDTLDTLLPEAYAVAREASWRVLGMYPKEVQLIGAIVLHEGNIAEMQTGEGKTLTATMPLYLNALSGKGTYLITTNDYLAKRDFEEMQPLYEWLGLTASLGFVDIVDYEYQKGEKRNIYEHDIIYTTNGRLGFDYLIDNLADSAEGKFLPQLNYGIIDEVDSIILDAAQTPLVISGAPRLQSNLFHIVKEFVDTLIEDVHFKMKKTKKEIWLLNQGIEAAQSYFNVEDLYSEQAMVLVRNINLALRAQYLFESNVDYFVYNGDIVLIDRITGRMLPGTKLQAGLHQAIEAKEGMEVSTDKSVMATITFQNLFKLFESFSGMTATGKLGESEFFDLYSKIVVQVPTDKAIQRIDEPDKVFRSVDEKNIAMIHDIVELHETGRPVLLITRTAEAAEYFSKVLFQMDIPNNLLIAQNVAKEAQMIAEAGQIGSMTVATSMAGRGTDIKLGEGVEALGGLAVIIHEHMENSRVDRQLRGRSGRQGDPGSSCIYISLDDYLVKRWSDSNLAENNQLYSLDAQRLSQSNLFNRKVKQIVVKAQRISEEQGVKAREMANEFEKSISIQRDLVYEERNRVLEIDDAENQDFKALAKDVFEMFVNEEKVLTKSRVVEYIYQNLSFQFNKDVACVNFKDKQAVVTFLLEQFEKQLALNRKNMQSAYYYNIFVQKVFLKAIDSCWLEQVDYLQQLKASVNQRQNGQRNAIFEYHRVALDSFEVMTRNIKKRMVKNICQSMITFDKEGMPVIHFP

[7] = system: B. anthracis Sterne; test: microbe, parasite or virus in culture; assay type: cell-based; conditions: for MIC: Bacillus anthracis, read-out: Bacteriostatic MIC95, B. anthracis Sterne
[8] = target: T1, EcSecA; test: biochemical; conditions: IC50, Translocation ATPase, Table 1
Target sequence in this assay (P0AG99 whole entry): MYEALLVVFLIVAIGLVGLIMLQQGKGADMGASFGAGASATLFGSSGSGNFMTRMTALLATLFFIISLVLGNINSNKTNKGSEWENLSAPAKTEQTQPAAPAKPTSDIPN
Target sequence in this assay (P10408 whole entry): as the sequence (P10408 whole entry) above
Target sequence in this assay (P0AGA2 whole entry, further chain): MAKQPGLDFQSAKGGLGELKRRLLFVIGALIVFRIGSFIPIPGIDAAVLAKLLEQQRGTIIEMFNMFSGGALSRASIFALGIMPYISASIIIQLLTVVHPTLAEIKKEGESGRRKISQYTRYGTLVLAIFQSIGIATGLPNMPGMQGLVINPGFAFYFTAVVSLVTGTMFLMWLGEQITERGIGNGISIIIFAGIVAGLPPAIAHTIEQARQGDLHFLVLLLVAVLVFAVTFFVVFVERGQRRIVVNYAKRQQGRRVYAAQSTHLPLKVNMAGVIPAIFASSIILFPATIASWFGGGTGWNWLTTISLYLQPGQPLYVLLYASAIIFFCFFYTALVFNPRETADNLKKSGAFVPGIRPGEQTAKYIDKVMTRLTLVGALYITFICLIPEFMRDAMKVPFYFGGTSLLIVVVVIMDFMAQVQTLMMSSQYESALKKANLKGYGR
Target sequence in this assay (P0AG96 whole entry, further chain): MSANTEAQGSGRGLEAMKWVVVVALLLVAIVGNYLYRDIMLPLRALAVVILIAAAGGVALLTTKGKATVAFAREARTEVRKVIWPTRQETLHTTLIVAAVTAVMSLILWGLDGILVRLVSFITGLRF

[9] = target: T2, BsSecA; test: biochemical; assay type: biochemical, B. subtilis
[10] = target: BaSecA1 (Bacillus anthracis, UniProt Q81X26); test: cell-based; conditions: IC50, Ion Channel activity, BGaSecA 1
Sequence of BaSecA1 (Q81X26 whole entry, looked up): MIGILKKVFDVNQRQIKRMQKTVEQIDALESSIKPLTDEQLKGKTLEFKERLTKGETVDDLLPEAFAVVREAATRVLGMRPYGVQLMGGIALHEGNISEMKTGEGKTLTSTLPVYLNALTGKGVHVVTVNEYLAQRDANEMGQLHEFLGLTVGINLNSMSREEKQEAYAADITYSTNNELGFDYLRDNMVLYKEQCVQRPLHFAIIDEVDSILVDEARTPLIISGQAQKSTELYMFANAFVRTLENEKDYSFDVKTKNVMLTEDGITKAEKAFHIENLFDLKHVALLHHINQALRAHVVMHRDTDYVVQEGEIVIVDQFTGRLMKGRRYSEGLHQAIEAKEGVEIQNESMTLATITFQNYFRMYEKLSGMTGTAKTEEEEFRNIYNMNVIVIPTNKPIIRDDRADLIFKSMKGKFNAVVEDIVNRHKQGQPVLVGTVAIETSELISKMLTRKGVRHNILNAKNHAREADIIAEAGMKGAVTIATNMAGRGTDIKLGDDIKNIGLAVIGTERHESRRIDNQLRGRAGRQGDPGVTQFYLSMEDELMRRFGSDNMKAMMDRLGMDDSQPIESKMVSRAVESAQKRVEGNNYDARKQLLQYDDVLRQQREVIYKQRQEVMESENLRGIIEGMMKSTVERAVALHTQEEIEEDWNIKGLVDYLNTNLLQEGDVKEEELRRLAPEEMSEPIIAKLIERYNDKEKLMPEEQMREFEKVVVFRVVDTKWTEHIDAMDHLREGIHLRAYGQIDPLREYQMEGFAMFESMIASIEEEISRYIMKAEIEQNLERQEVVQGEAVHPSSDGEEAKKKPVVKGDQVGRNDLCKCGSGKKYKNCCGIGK

[11] = target: MtbSecA (Mycobacterium tuberculosis, UniProt P9WGP5); test: cell-based
[12] = target: T1, EcSecA; test: biochemical; conditions: IC50, Protein Translocation, Table 1
Target sequence in this assay (P0AG99 whole entry): as the sequence (P0AG99 whole entry) above
Target sequence in this assay (P10408 whole entry): as the sequence (P10408 whole entry) above
Target sequence in this assay (P0AGA2 whole entry, further chain): as the sequence (P0AGA2 whole entry, further chain) above
Target sequence in this assay (P0AG96 whole entry, further chain): as the sequence (P0AG96 whole entry, further chain) above

[13] = system: S. pyogenes, MGAS5005; test: MIC95, S. pyogenes MGAS5005; assay type: cell-based; conditions: Streptococcus pyogenes, MGAS5005; read-out: MIC95, S. pyogenes MGAS5005
[14] = target: T4, SaSecA1 (Staphylococcus aureus, UniProt O06446); test: cell-based
T4 sequence (O06446 1-843): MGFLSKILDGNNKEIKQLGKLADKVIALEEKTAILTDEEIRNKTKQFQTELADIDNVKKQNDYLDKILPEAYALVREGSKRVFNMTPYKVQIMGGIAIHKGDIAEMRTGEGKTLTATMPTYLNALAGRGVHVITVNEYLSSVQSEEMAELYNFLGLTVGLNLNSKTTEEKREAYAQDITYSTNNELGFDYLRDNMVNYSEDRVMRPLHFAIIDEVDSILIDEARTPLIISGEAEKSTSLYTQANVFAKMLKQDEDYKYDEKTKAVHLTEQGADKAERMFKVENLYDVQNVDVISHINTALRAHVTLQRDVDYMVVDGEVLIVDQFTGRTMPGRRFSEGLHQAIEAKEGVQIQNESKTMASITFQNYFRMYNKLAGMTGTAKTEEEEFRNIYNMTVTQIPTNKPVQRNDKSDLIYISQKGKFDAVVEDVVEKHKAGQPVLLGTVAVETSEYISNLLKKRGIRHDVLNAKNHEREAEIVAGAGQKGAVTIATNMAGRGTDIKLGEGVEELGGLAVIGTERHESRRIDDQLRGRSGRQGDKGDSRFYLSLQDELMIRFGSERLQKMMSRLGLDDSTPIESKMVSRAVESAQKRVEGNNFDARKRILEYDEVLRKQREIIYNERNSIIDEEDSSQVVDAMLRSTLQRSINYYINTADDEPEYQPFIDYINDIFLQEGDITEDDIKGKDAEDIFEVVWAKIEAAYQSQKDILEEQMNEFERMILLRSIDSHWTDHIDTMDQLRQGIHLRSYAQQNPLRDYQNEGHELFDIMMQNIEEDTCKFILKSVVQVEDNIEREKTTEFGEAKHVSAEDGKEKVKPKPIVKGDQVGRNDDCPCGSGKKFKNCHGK

[15] = target: MsSecA (Mycolicibacterium smegmatis, UniProt P71533); test: SecA-liposomes ion-channel activity in oocytes, MsSecA; assay type: cell-based; conditions: Table 1
[16] = target: T1, EcSecA; test: biochemical; set-up: species or system E. coli; conditions: IC50, Intrinsic ATPase, Table 1, full-length EcSecA
Target sequence in this assay (P10408 whole entry): as the sequence (P10408 whole entry) above

[17] = system: S. aureus deletion strains (NorA−, MepA−) and strains (NorA++, MepA++) with over-expressed efflux pumps; test: Antimicrobial effect with deletion or over expression of efflux pumps in S. aureus; conditions: wild type, NorA−/MepA− and NorA++/MepA++ strains
[18] = target: BsSecA2; conditions: read-out: IC50, Intrinsic ATPase, BsSecA2; Table 1
[19] = target: SpSecA (Streptococcus pyogenes, UniProt Q99Y96); assay type: cell-based; conditions: read-out: IC50, Ion Channel activity, SpSecA
Sequence of SpSecA (Q99Y96 whole entry): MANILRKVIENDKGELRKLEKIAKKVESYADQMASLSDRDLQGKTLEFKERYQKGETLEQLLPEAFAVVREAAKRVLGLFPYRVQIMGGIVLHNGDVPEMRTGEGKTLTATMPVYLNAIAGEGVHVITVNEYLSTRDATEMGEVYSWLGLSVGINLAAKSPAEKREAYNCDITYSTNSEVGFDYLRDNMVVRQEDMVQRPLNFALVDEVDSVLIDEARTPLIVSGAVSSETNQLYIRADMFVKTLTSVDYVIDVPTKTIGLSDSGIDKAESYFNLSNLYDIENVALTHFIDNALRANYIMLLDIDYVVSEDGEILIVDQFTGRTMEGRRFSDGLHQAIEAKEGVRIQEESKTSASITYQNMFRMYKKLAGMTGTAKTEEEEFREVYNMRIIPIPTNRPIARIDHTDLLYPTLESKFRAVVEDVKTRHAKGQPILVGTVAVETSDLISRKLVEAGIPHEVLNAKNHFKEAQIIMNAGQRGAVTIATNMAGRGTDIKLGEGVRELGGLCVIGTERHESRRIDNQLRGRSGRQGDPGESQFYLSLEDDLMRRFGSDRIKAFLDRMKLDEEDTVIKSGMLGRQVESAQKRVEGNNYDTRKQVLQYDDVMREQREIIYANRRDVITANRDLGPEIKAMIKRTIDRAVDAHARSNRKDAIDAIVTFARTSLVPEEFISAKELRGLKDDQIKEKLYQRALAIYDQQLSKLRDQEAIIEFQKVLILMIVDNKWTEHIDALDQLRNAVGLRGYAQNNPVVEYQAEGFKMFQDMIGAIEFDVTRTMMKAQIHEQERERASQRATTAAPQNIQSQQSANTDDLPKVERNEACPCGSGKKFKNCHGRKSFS

[20] = Ion channel, IC50, BsSecA, Table 5
[21] = MU50, read-out: Bacteriostatic effect MIC, S. aureus Mu50, Table 10 and Example 4
[22] = MU50, read-out: Bacteriostatic MIC95, S. aureus Mu50, Table 2
[23] = MU50, read-out: MIC95 against drug resistant S. aureus Mu50
[24] = Ion channel, IC50, EcSecA, Table 5

Oc1c(I)cc2c(c1I)Oc1c(cc(I)c(O)c1I)C2C1CCCC1 [Compound 23b, 9-Cyclopentyl-2,4,5,7-tetraiodo-9H-xanthene-3,6-diol]
pIC50 [1]: 5.60 | MIC [2]: 6 µM (≈ 4.72 µg/mL) | pIC50 [3, 20]: 5.42

CO[C@H]1/C=C/O[C@@]2(C)Oc3c(C)c(O)c4c(O)c(c(/C=N/N5CCN(C)CC5)c(O)c4c3C2=O)NC(=O)/C(C)=C\C=C\[C@H](C)[C@H](O)[C@@H](C)[C@@H](O)[C@@H](C)[C@H](OC(C)=O)[C@@H]1C [Rifampicin]
MIC [4, 21]: > 1000 µg/mL

Oc1c(Br)cc2c(c1Br)Oc1c(cc(Br)c(O)c1Br)C2C1CCCC1 [Compound 23a, 2,4,5,7-Tetrabromo-9-cyclopentyl-9H-xanthene-3,6-diol]
pIC50 [1]: 5.64 | MIC [2]: 22 µM (≈ 13.2 µg/mL) | pIC50 [3, 20]: 5.62

O=C(O)c1ccccc1-c1c2ccc(=O)c(I)c-2oc2c(I)c(O)ccc12 [DI, Diiodofluorescein, reference compound]
pIC50 ([5]; read-out: IC50, EcN68 SecA ATPase (unregulated ATPase)): 4.52

CSc1nc(Sc2nnc(-c3cc(C(F)(F)F)cc(C(F)(F)F)c3)[nH]2)cc(Sc2nnc(-c3cc(C(F)(F)F)cc(C(F)(F)F)c3)[nH]2)n1 [SCA-21]
pIC50 [6]: 4.37 | MIC [7]: 3 µg/mL (≈ 4.01 µM) | pIC50 [8]: 4.70 | pIC50 [9]: < 4.00 | MIC [4, 22]: 1.5 µg/mL | MIC [4, 23]: 1.5 µM | pIC50 [10]: 5.82 | pIC50 [11]: 5.70 | pIC50 [1]: 5.62 | pIC50 [12]: 4.68 | MIC [13]: 0.39 µM (≈ 0.292 µg/mL) | pIC50 [5]: 4.74 | pIC50 ([3]; IC50, Ion Channel activity, BsSecA, Table 1): 5.59 | pIC50 [14]: 5.80 | pIC50 [15]: 5.70 | pIC50 [16]: 4.49 | Bactericidal (killing) effect with over expression of efflux pumps [17]: not attenuated | MIC (bacteriostatic) with over expression of efflux pumps [17]: did not increase | pIC50 [18]: 4.35 | pIC50 [19]: 6.00

CC[C@H]1OC(=O)[C@H](C)[C@@H](O[C@H]2C[C@@](C)(OC)[C@@H](O)[C@H](C)O2)[C@H](C)[C@@H](O[C@@H]2O[C@H](C)C[C@H](N(C)C)[C@H]2O)[C@](C)(O)C[C@@H](C)C(=O)[C@H](C)[C@@H](O)[C@]1(C)O [Erythromycin]
MIC [7]: 0.3 µg/mL (≈ 0.409 µM) | MIC [4, 22]: > 500 µg/mL | MIC [4, 21]: > 1250 µg/mL | MIC [4, 23]: > 100 µM

Oc1cc2c(cc1I)C(C1CCCC1)c1cc(I)c(O)c(I)c1O2 (stereo not drawn) [Compound 23c]
pIC50 [1]: 5.66 | MIC [2]: 6 µM (≈ 3.96 µg/mL) | pIC50 [3, 20]: 5.55

CCCCCCC1c2ccc(O)cc2Oc2cc(O)ccc21 [Compound 22c, 9-Hexyl-9H-xanthene-3,6-diol]
pIC50 [1, 24]: 5.64 | MIC [2]: 13 µM (≈ 3.88 µg/mL) | pIC50 [3, 20]: 5.60

CN(C)[C@@H]1C(O)=C(C(N)=O)C(=O)[C@@]2(O)C(O)=C3C(=O)c4c(O)cccc4[C@@](C)(O)[C@H]3C[C@@H]12 [Tetracycline]
MIC [7]: 0.1 µg/mL (≈ 0.225 µM) | MIC [4, 22]: 200 µg/mL | MIC [4, 21]: 62.5 µg/mL | MIC [4, 23]: > 100 µM

Gentamycin
Bacteriostatic MIC95, B. anthracis Sterne ([7]; Table 2): 5 µg/mL | Bacteriostatic MIC95, S. aureus Mu50 [4]: >500 µg/mL

CC(C)C1c2ccc(O)cc2Oc2cc(O)ccc21 [Compound 22b, 9-Isopropyl-9H-xanthene-3,6-diol]
pIC50 [1]: 5.37 | MIC [2]: 75 µM (≈ 19.2 µg/mL) | pIC50 [3, 20]: 5.31

CC1(C)S[C@@H]2[C@H](NC(=O)[C@H](N)c3ccccc3)C(=O)N2[C@H]1C(=O)O [Ampicillin]
MIC [7]: > 20 µg/mL | MIC [4, 22]: 7.8 µg/mL | MIC [4, 21]: 1000 µg/mL

CN[C@H](CC(C)C)C(=O)N[C@H]1C(=O)N[C@@H](CC(N)=O)C(=O)N[C@H]2C(=O)N[C@H]3C(=O)N[C@H](C(=O)N[C@H](C(=O)O)c4cc(O)cc(O)c4-c4cc3ccc4O)[C@H](O)c3ccc(c(Cl)c3)Oc3cc2cc(c3O[C@@H]2O[C@H](CO)[C@@H](O)[C@H](O)[C@H]2O[C@H]2C[C@](C)(N)[C@H](O)[C@H](C)O2)Oc2ccc(cc2Cl)[C@H]1O [Vancomycin]
MIC [7]: 2.5 µg/mL (≈ 1.73 µM) | MIC ([4]; MU50, read-out: Bacteriostatic MIC95, S. aureus Mu50): 5 µg/mL | MIC ([4]; MU50, read-out: Bacteriostatic effect MIC, S. aureus Mu50): 7.8 µg/mL | MIC [4, 23]: 5 µM

Polymyxin B
Bacteriostatic MIC95, B. anthracis Sterne ([7]; Table 2): 10 µg/mL | Bacteriostatic MIC95, S. aureus Mu50 [4]: 15 µg/mL | Bacteriostatic effect MIC, S. aureus Mu50 ([4]; Table 10 and text of Example 4): 31.3 µg/mL

CCn1cc(C(=O)O)c(=O)c2cc(F)c(N3CCNCC3)cc21 [Norfloxacin]
MIC [4, 21]: 250 µg/mL

CC(C)C1c2cc(I)c(O)c(I)c2Oc2c1cc(I)c(O)c2I [Compound 23d, 2,4,5,7-Tetraiodo-9-isopropyl-9H-xanthene-3,6-diol]
pIC50 [1]: 5.55 | MIC [2]: 6 µM (≈ 4.56 µg/mL) | pIC50 [3, 20]: 5.60

CN(C)c1ccc2c(c1)Oc1cc(N(C)C)ccc1C2C1CCCC1 [Compound 30, 9-Cyclopentyl-N3,N3,N6,N6-tetramethyl-9H-xanthene-3,6-diamine]
Inhibition of EcSecA N68 ATPase, initial screening ([5]; 100 μM, FIG. 1): weak or no activity

O=C(N[C@H](CO)[C@H](O)c1ccc([N+](=O)[O-])cc1)C(Cl)Cl [Chloramphenic]
Bacteriostatic MIC95, B. anthracis Sterne [7]: 10 µg/mL | Bacteriostatic MIC95, S. aureus Mu50 [4]: >40 µg/mL

NC[C@H]1O[C@H](O[C@H]2[C@H](O)[C@@H](O[C@H]3O[C@H](CO)[C@@H](O)[C@H](N)[C@H]3O)[C@H](N)C[C@@H]2N)[C@H](O)[C@@H](O)[C@@H]1O [Kanamycin]
MIC [4, 21]: 1000 µg/mL | MIC [4, 23]: > 100 µM

Oc1ccc2c(c1)Oc1cc(O)ccc1C2C1CCCC1 [Compound 22a, 9-Cyclopentyl-9H-xanthene-3,6-diol]
pIC50 [1, 24]: 5.47 | MIC [2]: 25 µM (≈ 7.06 µg/mL) | pIC50 [3, 20]: 5.52
